Test results published in patent US11339171B2, “MDM2 inhibitors” (Gan & Lee Pharmaceuticals, priority 2017, dated 2022).
pIC50: −log10 of the molar value.

Target: T1, MDM2 (Homo sapiens, UniProt Q00987)
T1 construct: made in house
Test: Inhibition test of MDM2-P53 (GST-MDM2, Biotin-P53, Anti-GST-Tb, SA-XL665)
Type: binding
Settings: for inhibitory effect on MDM2 compared with positive control compound HDM201: labels are Example numbers, the compounds with S-configuration are meant
Description: Experimental purpose: To determine the inhibitory activities of the compounds of the present invention on MDM2.
The present experiment uses the following assay methods/instruments/reagents:
Buffer: 1×PBS+0.1% BSA+5 mM DTT; MDM2 Buffer: Buffer+1 mM AEBSF
GST-MDM2: The final concentration is 4 nM, and it is required to formulate a 20 nM (5×) solution. A mother liquor is diluted by 3500 folds, wherein the mother liquor is 10-fold diluted first, and then 350-fold diluted.
Anti-GST-Tb: The final concentration is 2×, and a mother liquor is diluted by 50 folds.
MIX: GST-MDM2, Biotin-P53, SA-XL665 and Anti-GST-Tb were mixed according to a ratio of 4:4:5:5.
Sample: Preparation of a sample (10 mM in DMSO) solution: a. 3 μL sample+7 μL DMSO+20 μL DMSO were formulated to give an initial concentration of 1 mM and mixed well; b. in plate 1, twelve 5-fold serial dilutions (sequentially prepared by adding 10 μL of the last sample to 40 μL DMSO) were prepared and mixed well, individually; c. plate 2 was taken, 45 μL of Buffer was added to each well, and 5 μL of dilution at each concentration was taken from plate 1 and added to the corresponding well in plate 2 (the concentration in well 1 was 100 μM), and mixed well.
1. 18 μL of MIX was added to a 384-well plate, and centrifugation was performed at 4500 rpm for 5 min.
2. 2 μL of sample was added correspondingly to each well, the resultant was centrifuged at 25° C. and 4500 rpm for 5 min, and shaked at 25° C. for 90 min on a shaker.
Readings were obtained from the Microplate reader, and data was processed by Graphpad Prism 6.0.

T1 sequence (Q00987 whole entry): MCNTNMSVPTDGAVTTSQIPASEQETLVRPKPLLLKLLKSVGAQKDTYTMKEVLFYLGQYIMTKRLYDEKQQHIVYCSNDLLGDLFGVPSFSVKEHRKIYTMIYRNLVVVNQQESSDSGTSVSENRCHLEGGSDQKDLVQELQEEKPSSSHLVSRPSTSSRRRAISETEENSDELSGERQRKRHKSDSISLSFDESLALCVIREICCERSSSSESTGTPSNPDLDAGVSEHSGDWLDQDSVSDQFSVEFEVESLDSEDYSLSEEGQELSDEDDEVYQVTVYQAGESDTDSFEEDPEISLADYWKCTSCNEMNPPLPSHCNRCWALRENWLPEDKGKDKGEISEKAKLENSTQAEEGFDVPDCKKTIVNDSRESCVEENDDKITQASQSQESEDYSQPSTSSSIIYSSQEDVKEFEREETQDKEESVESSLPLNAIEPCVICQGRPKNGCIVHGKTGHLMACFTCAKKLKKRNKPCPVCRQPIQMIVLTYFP

Structure (SMILES)	inhibitory effect on MDM2 compared with positive control compound HDM201	pIC50
COc1cc(C(F)(F)F)ncc1-c1nc2c(n1C(C)C)C1(C(=O)Nc3cc(Cl)ccc31)N(c1cc(Cl)cnc1C)C2=O (stereo not drawn) [Example 152, 6-chloro-5′-(5-chloro-2-methylpyridin-3-yl)-3′-isopropyl-2′-(4-methoxy-6-(trifluoromethyl)pyridine-3-yl)-3′H-spiro[dihydroindole-3,4′-pyrrolo[3,4-d]imidazole]-2,6′(5′H)-dione]	better	–
COc1ncc(-c2nc3c(n2C(C)C)C2(C(=O)Nc4cc(Cl)ccc42)N(c2cc(Cl)ccc2C(C)C)C3=O)c(OC)n1 (stereo not drawn) [Example 156, 6-chloro-5′-(5-chloro-2-isopropylphenyl)-2′-(2,4-dimethoxypyrimidin-5-yl)-3′-isopropyl-3′H-spiro[dihydroindole-3,4′-pyrrolo[3,4-d]imidazole]-2,6′(5′H)-dione]	–	7.95
COc1cc(OCCF)ncc1-c1nc2c(n1C(C)C)C1(C(=O)Nc3cc(Cl)ccc31)N(c1cc(Cl)ccc1C)C2=O (stereo not drawn) [Example 163, 6-chloro-5′-(5-chloro-2-methylphenyl)-2′-(6-(2-fluoroethoxy)-4-methoxypyridin-3-yl)-3′-isopropyl-3′H-spiro[dihydroindole-3,4′-pyrrolo[3,4-d]imidazole]-2,6′(5′H)-dione]	better	–
COc1nc(OCCF)ncc1-c1nc2c(n1C(C)C)C1(C(=O)Nc3cc(Cl)ccc31)N(c1cc(Cl)cnc1C)C2=O (stereo not drawn) [Example 170, 6-chloro-5′-(5-chloro-2-methylpyridin-3-yl)-2′-(2-(2-fluoroethoxy)-4-methoxypyrimidin-5-yl)-3′-isopropyl-3′H-spiro[dihydroindole-3,4′-pyrrolo[3,4-d]imidazole]-2,6′(5′H)-dione]	better	–
COc1cc(OCCF)ncc1-c1nc2c(n1C(C)C)C1(C(=O)Nc3cc(Cl)ccc31)N(c1cc(Cl)cnc1C)C2=O (stereo not drawn) [Example 173, 6-chloro-5′-(5-chloro-2-methylpyridin-3-yl)-2′-(6-(2-fluoroethoxy)-4-methoxypyridin-3-yl)-3′-isopropyl-3′H-spiro[dihydroindole-3,4′-pyrrolo[3,4-d]imidazole]-2,6′(5′H)-dione]	better	–
COc1cc(OC)c(-c2nc3c(n2C(C)C)C2(C(=O)Nc4cc(Cl)ccc42)N(c2cc(F)cc(Cl)c2)C3=O)cn1 (stereo not drawn) [Example 175, 6-chloro-5′-(3-chloro-5-fluorophenyl)-2′-(4,6-dimethoxypyridin-3-yl)-3′-isopropyl-3′H-spiro[dihydroindole-3,4′-pyrrolo[3,4-d]imidazole]-2,6′(5′H)-dione]	better	–
CCc1ccccc1-c1nc2c(n1C(C)C)[C@]1(C(=O)Nc3cc(Cl)ccc31)N(c1cc(Cl)ccc1C)C2=O [Example R-7, (R)-6-chloro-5′-(5-chloro-2-methylphenyl)-2′-(2-ethylphenyl)-3′-isopropylisopropyl-3′H-spiro[dihydroindole-3,4′-pyrrolo[3,4-d]imidazole]-2,6′(5′H)-dione]	–	4.44
COc1ncncc1-c1nc2c(n1C(C)C)[C@]1(C(=O)Nc3cc(Cl)ccc31)N(c1cc(Cl)ccc1C)C2=O [Example R-27, (R)-6-chloro-5′-(5-chloro-2-methylphenyl)-3′-isopropyl-2′-(4-methoxypyrimidin-5-yl)-3′H-spiro[dihydroindole-3,4′-pyrrolo[3,4-d]imidazole]-2,6′(5′H)-dione]	–	6.03
COc1ncc(-c2nc3c(n2C2CC2)[C@]2(C(=O)Nc4cc(Cl)ccc42)N(c2cc(Cl)ccc2C)C3=O)c(OC)n1 [Example R-28, (R)-6-chloro-5′-(5-chloro-2-methylphenyl)-3′-cyclopropane-2′-(2,4-dimethoxypyrimidin-5-yl)-3′H-spiro[dihydroindole-3,4′-pyrrolo[3,4-d]imidazole]-2,6′(5′H)-dione]	–	5.51
